# Laboratory results reported in patent US7235679B2, “Crystals of a vitamin D derivative and a method for the preparation thereof” (Chugai Seiyaku Kabushiki Kaisha, priority 1996, dated 2007).
# What was measured:
# Format in all cases: physicochemical
# [1] = Stability test of ED-71: purity measurement using reverse phase HPLC; settings: for Purity Measurement Using Reverse Phase HPLC, ED-71 peak / Purity Measurement Using Reverse Phase HPLC, Other peaks / Purity Measurement Using Reverse Phase HPLC, Pre Form peak: 265 nm
# Method: (§1) Amorphous and crystalline ED-71 compounds were tested for stability at 10, 25 and […]. To estimate the stability, HPLC quantitative assay and absorbance and purity measurements were utilized. The purity was expressed as peak area ratio in percentage in HPLC (% P.A.R.). The test was carried out by using the following procedures:
# (§2) About 2 mg portions of each of the amorphous and crystalline samples are precisely weighed into transparent 10 ml test tubes each having screw cap, individually.
# (§3) The test tubes are purged with argon using a vacuum desiccator and a glove box. This purging procedure is not applied to the test tubes indicated as “1 M (air)” in the tables below.
# (§4) The test tubes in groups are fixed in thermostatic baths which are respectively controlled at the above temperatures and allowed to stand in the dark. After one (1 W) or two (2 W) weeks or one month (1 M), the test tubes are removed from the baths and subjected to the following assay and measurements:
# HPLC is carried out using 25 μl of the sample solution as prepared in “HPLC quantitative assay” above. • HPLC conditions used: • Column: Inertsil ODS-2 (5×250 mm) • Mobile phase: acetonitrile/water mixture (55/45) • Flow rate: 1 ml/min • Detection: at UV 265 and 220 nm.
# [2] = Stability test of ED-71: absorbance measurement at 265 nm (E 1%); settings: absorbance at 265 nm
# Method: as §1, §2, §3, §4
# 1 ml of the sample solution as prepared in “HPLC quantitative assay” above is diluted with absolute ethanol to give a whole volume of 10 ml and this diluted solution is then measured for the absorbance at 265 nm using a ultraviolet spectrophotometer. The absorbance is converted into E 1% value which is derived from Lambert-Beer Law and the conversion is made according to the following equation: E1%=A/cb wherein A is absorbance, c is concentration in g/100 ml and b is length of optical path in cm across the test solution, which is commonly 1. (4) Purity Measurement
# [3] = Stability test of ED-71: HPLC quantitative assay (survivability)
# Method: as §1, §2, §3, §4
# 5 ml of absolute ethanol is precisely added to the test tube to form a sample solution. 1 ml of the sample solution and 1 ml of an internal standard solution are both precisely added to another test tube and the resulting mixture is diluted with methylene chloride to give a whole volume of 20 ml. This diluted solution is designated solution 1. The internal standard solution is formed by dissolving 2-aminopyrimidine in methanol to a concentration of 0.6 mg/ml.
# Next, both of 1 ml of another standard solution for quantitative assay which is formed by dissolving crystalline ED-71 in absolute ethanol to a concentration of 0.4 mg/ml and 1 ml of the internal standard solution are precisely added to another test tube and the resulting mixture is diluted with methylene chloride to give a whole volume of 20 ml. This diluted solution is designated solution 2.
# HPLC is carried out using 20 μl of each of solutions 1 and 2. For each solution, an area ratio of the peak of ED-71 to the peak of the internal standard substance is determined from the HPLC data. The ED-71 content in the sample is determined from the ratio of the area ratio for solution 1 to that for solution 2.
# Survivability (%) is determined by dividing the ED-71 content thus obtained by ED-71 content in the same sample but prior to the above treatment. • HPLC conditions used: • Column: YMC A-004SIL (4.6×300 mm) • Mobile phase: methylene chloride/methanol mixture (95/5) • Flow rate: 1 ml/min • Detection: at UV 265 nm. (3) Absorbance Measurement
smiles,measurement,setting,value
"C=C1/C(=C\C=C2/CCC[C@@]3(C)C2CC[C@@H]3[C@H](C)CCCC(C)(C)O)C[C@@H](O)[C@@H](OCCCO)[C@@H]1O (stereo partly drawn) [Amor., 1α,25-dihydroxy-2β-(3-hydroxypropoxy)vitamin D3]","220 nm (%), ED-71 peak","[1]; 10° C., 1 M (air), dark",92.07%
same,"220 nm (%), Other peaks","[1]; 10° C., 1 M (air), dark",5.88%
same,"220 nm (%), Pre Form peak","[1]; 10° C., 1 M (air), dark",2.04%
same,"220 nm (%), ED-71 peak","[1]; 10° C., 1 M, argon, dark",92.85%
same,"220 nm (%), Other peaks","[1]; 10° C., 1 M, argon, dark",5.13%
same,"220 nm (%), Pre Form peak","[1]; 10° C., 1 M, argon, dark",2.02%
same,"220 nm (%), ED-71 peak","[1]; 10° C., 2 W, argon, dark",92.85%
same,"220 nm (%), Other peaks","[1]; 10° C., 2 W, argon, dark",5.13%
same,"220 nm (%), Pre Form peak","[1]; 10° C., 2 W, argon, dark",2.02%
same,"220 nm (%), ED-71 peak","[1]; 10° C., time 0",93.95%
same,"220 nm (%), Other peaks","[1]; 10° C., time 0",4.70%
same,"220 nm (%), Pre Form peak","[1]; 10° C., time 0",1.37%
same,"220 nm (%), ED-71 peak","[1]; 25° C., 1 W, argon, dark",93.37%
same,"220 nm (%), Other peaks","[1]; 25° C., 1 W, argon, dark",5.13%
same,"220 nm (%), Pre Form peak","[1]; 25° C., 1 W, argon, dark",1.50%
same,"220 nm (%), ED-71 peak","[1]; 25° C., 2 W, argon, dark",92.39%
same,"220 nm (%), Other peaks","[1]; 25° C., 2 W, argon, dark",5.68%
same,"220 nm (%), Pre Form peak","[1]; 25° C., 2 W, argon, dark",1.93%
same,"220 nm (%), ED-71 peak","[1]; 25° C., time 0",93.95%
same,"220 nm (%), Other peaks","[1]; 25° C., time 0",4.70%
same,"220 nm (%), Pre Form peak","[1]; 25° C., time 0",1.37%
same,"220 nm (%), ED-71 peak","[1]; 40° C., 1 W, argon, dark",90.00%
same,"220 nm (%), Other peaks","[1]; 40° C., 1 W, argon, dark",7.71%
same,"220 nm (%), Pre Form peak","[1]; 40° C., 1 W, argon, dark",2.29%
same,"220 nm (%), ED-71 peak","[1]; 40° C., 2 W, argon, dark",87.40%
same,"220 nm (%), Other peaks","[1]; 40° C., 2 W, argon, dark",9.72%
same,"220 nm (%), Pre Form peak","[1]; 40° C., 2 W, argon, dark",2.88%
same,"220 nm (%), ED-71 peak","[1]; 40° C., time 0",93.95%
same,"220 nm (%), Other peaks","[1]; 40° C., time 0",4.70%
same,"220 nm (%), Pre Form peak","[1]; 40° C., time 0",1.37%
same,"Purity Measurement Using Reverse Phase HPLC, ED-71 peak","[1]; 10° C., 1 M (air), dark",94.11 % P.A.R
same,"Purity Measurement Using Reverse Phase HPLC, Other peaks","[1]; 10° C., 1 M (air), dark",4.07 % P.A.R
same,"Purity Measurement Using Reverse Phase HPLC, Pre Form peak","[1]; 10° C., 1 M (air), dark",1.82 % P.A.R
same,"Purity Measurement Using Reverse Phase HPLC, ED-71 peak","[1]; 10° C., 1 M, argon, dark",93.05 % P.A.R
same,"Purity Measurement Using Reverse Phase HPLC, Other peaks","[1]; 10° C., 1 M, argon, dark",5.07 % P.A.R
same,"Purity Measurement Using Reverse Phase HPLC, Pre Form peak","[1]; 10° C., 1 M, argon, dark",1.88 % P.A.R
same,"Purity Measurement Using Reverse Phase HPLC, ED-71 peak","[1]; 10° C., 2 W, argon, dark",94.48 % P.A.R
same,"Purity Measurement Using Reverse Phase HPLC, Other peaks","[1]; 10° C., 2 W, argon, dark",3.77 % P.A.R
same,"Purity Measurement Using Reverse Phase HPLC, Pre Form peak","[1]; 10° C., 2 W, argon, dark",1.75 % P.A.R
same,"Purity Measurement Using Reverse Phase HPLC, ED-71 peak","[1]; 10° C., time 0",95.38 % P.A.R
same,"Purity Measurement Using Reverse Phase HPLC, Other peaks","[1]; 10° C., time 0",3.47 % P.A.R
same,"Purity Measurement Using Reverse Phase HPLC, Pre Form peak","[1]; 10° C., time 0",1.16 % P.A.R
same,"Purity Measurement Using Reverse Phase HPLC, ED-71 peak","[1]; 25° C., 1 W, argon, dark",94.78 % P.A.R
same,"Purity Measurement Using Reverse Phase HPLC, Other peaks","[1]; 25° C., 1 W, argon, dark",3.95 % P.A.R
same,"Purity Measurement Using Reverse Phase HPLC, Pre Form peak","[1]; 25° C., 1 W, argon, dark",1.27 % P.A.R
same,"Purity Measurement Using Reverse Phase HPLC, ED-71 peak","[1]; 25° C., 2 W, argon, dark",94.20 % P.A.R
same,"Purity Measurement Using Reverse Phase HPLC, Other peaks","[1]; 25° C., 2 W, argon, dark",4.08 % P.A.R
same,"Purity Measurement Using Reverse Phase HPLC, Pre Form peak","[1]; 25° C., 2 W, argon, dark",1.72 % P.A.R
same,"Purity Measurement Using Reverse Phase HPLC, ED-71 peak","[1]; 25° C., time 0",95.38 % P.A.R
same,"Purity Measurement Using Reverse Phase HPLC, Other peaks","[1]; 25° C., time 0",3.47 % P.A.R
same,"Purity Measurement Using Reverse Phase HPLC, Pre Form peak","[1]; 25° C., time 0",1.16 % P.A.R
same,"Purity Measurement Using Reverse Phase HPLC, ED-71 peak","[1]; 40° C., 1 W, argon, dark",92.47 % P.A.R
same,"Purity Measurement Using Reverse Phase HPLC, Other peaks","[1]; 40° C., 1 W, argon, dark",5.55 % P.A.R
same,"Purity Measurement Using Reverse Phase HPLC, Pre Form peak","[1]; 40° C., 1 W, argon, dark",1.98 % P.A.R
same,"Purity Measurement Using Reverse Phase HPLC, ED-71 peak","[1]; 40° C., 2 W, argon, dark",90.68 % P.A.R
same,"Purity Measurement Using Reverse Phase HPLC, Other peaks","[1]; 40° C., 2 W, argon, dark",6.78 % P.A.R
same,"Purity Measurement Using Reverse Phase HPLC, Pre Form peak","[1]; 40° C., 2 W, argon, dark",2.53 % P.A.R
same,"Purity Measurement Using Reverse Phase HPLC, ED-71 peak","[1]; 40° C., time 0",95.38 % P.A.R
same,"Purity Measurement Using Reverse Phase HPLC, Other peaks","[1]; 40° C., time 0",3.47 % P.A.R
same,"Purity Measurement Using Reverse Phase HPLC, Pre Form peak","[1]; 40° C., time 0",1.16 % P.A.R
same,E 1%,"[2]; 10° C., 1 M (air), dark",316.3
same,E 1%,"[2]; 10° C., 1 M, argon, dark",320.5
same,E 1%,"[2]; 10° C., 2 W, argon, dark",324.9
same,E 1%,"[2]; 10° C., time 0",327.5
same,E 1%,"[2]; 25° C., 1 W, argon, dark",323.0
same,E 1%,"[2]; 25° C., 2 W, argon, dark",316.9
same,E 1%,"[2]; 25° C., time 0",327.5
same,E 1%,"[2]; 40° C., 1 W, argon, dark",313.2
same,E 1%,"[2]; 40° C., 2 W, argon, dark",304.0
same,E 1%,"[2]; 40° C., time 0",327.5
same,HPLC Quantitative Assay (% Survivability),"[3]; 10° C., 1 M (air), dark",97.4%
same,HPLC Quantitative Assay (% Survivability),"[3]; 10° C., 1 M, argon, dark",94.8%
same,HPLC Quantitative Assay (% Survivability),"[3]; 10° C., 2 W, argon, dark",98.5%
same,HPLC Quantitative Assay (% Survivability),"[3]; 10° C., time 0",100%
same,HPLC Quantitative Assay (% Survivability),"[3]; 25° C., 1 W, argon, dark",99.5%
same,HPLC Quantitative Assay (% Survivability),"[3]; 25° C., 2 W, argon, dark",94.7%
same,HPLC Quantitative Assay (% Survivability),"[3]; 25° C., time 0",100%
same,HPLC Quantitative Assay (% Survivability),"[3]; 40° C., 1 W, argon, dark",99.4%
same,HPLC Quantitative Assay (% Survivability),"[3]; 40° C., 2 W, argon, dark",88.8%
same,HPLC Quantitative Assay (% Survivability),"[3]; 40° C., time 0",100%
